According to patent publication US20140088044A1, “PRODUCT COMPRISING A NICOTINE-CONTAINING MATERIAL AND AN ANTI-CANCER AGENT” (priority 2012, published 2014):

Columns and labels:
[1] = Pharmacokinetic parameters in lung and plasma after inhalational administration (HPLC)
Description: After 8 min of inhalation treatment, BALB/c nude mice were euthanized at various time points and drug levels were analyzed by HPLC in plasma and lung tissues.

A549 xenografts = A549 xenografts in nude mice, PS V and curcumin alone and combined; type: in vivo, female nude mice; details: for inhibition of tumor growth (in words): duration of the study, to day 36; for average tumor volume: end of the study (day 36), PS V 200 mg/kg/d, curcumin 500 mg/kg/d, control 521±76 mm^3; for reduction in tumor weight: PS V p=0.06, PS V plus curcumin p<0.01
Description: Polymeric nanoparticles of poly(c-caprolactone) (11000)-polyethylene glycol (5000) with entrapped curcumin were prepared according to the nanopercipitation-solvent displacement method. […] Then, the mice were inoculated subcutaneously on both flanks with […] cells (2×10^6 each). The treatment was resumed one day after tumor implantation and continued daily until the end of the study.

[2] = system: pre-clinical models of lung cancer; details: cited from earlier work
[3] = Drug levels in lungs and plasma after inhalation vs. oral gavage; type: in vivo, mice
human cancer cells = experiment: Cytotoxicity to human cancer cells compared with metabolites; type: cell-based
[4] = mouse, in vivo, inhaled or intranasal
[5] = plasma, after 8 min of inhalation treatment

## CSc1ccc(/C=C2/C(C)=C(CC(=O)O)c3cc(F)ccc32)cc1 [Sulindac sulfide XI, sulindac sulfide]
[1]; [4]
  AUC: 18.9

## CC1=C(CC(=O)O)c2cc(F)ccc2/C1=C\c1ccc([S+](C)[O-])cc1 (centres unmarked) [Sulindac, sulindac]
[1]; lung, after 8 min of inhalation treatment
  Tmax: 0 h
[1]; [5]
  AUC: 49.5
  Tmax: 0 h

## CC1=C(CC(=O)O)c2cc(F)ccc2/C1=C\c1ccc(S(C)(=O)=O)cc1 [Sulindac sulfone XII, sulindac sulfone]
[1]; [4]
  AUC: 57.5
  Cmax: 4.6 nmol/g

## COc1cc(/C=C/C(=O)CC(=O)/C=C/c2ccc(O)c(OC)c2)ccc1O [curcumin]
A549 xenografts
  inhibition of tumor growth (in words): ineffective
  average tumor volume: 599±98 mm^3
A549 xenografts; vs control
  reduction in tumor weight: not
[2]
  efficacy as a single agent: < 30%

## CCOP(=O)(OCC)OCCCCOC(=O)CC1=C(C)/C(=C/c2ccc([S+](C)[O-])cc2)c2ccc(F)cc21 (centres unmarked) [PS V, phospho-sulindac]
[3]; after inhalation and oral administration
  PS levels in plasma: undetectable
[3]; inhalation 6.5 mg/kg vs oral 150 mg/kg
  total drug levels (PS V plus its metabolites) in lungs, inhalation compared to oral: significantly higher
A549 xenografts
  inhibition of tumor growth (in words): small inhibition of tumor growth
  average tumor volume: 419±36 mm^3
A549 xenografts; end of the study, vs control
  reduction in tumor volume: 19.6%
A549 xenografts; vs control
  reduction in tumor weight: 27%
Human cancer cells
  cytotoxicity relative to sulindac, sulindac sulfide XI and sulindac sulfone XII: more cytotoxic
